Measured values: patent publication US11000033B2, “Ketone or oxime compound, and herbicide” (NISSAN CHEMICAL CORPORATION, priority 2014, dated 2021)

What was measured:
Type in all cases: in vivo
soybean = test: Test Example 4: effect on crop by soil treatment (symbol d); settings: application herbicide amount 320 g/ha
How it was run: (§1)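 Seeds were sown in spots on sterilized diluvial soil in a plastic box and covered with about 1.5 cm of soil. Plants were then grown in a greenhouse at 25° C. to 30° C.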

beet [1] = test: Test Example 5: effect on crop by foliage application, plastic box (symbol f); settings: 320 g/ha, 3 weeks after application
How it was run: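 Plants were raised from seed in a greenhouse (25° C. to 30° C.) after sowing in a plastic box of sterilized diluvial soil.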

[2] = tested on: Echinochloa oryzacola Vasing.; test: Test Example 2: herbicidal activity, application during weed generation in submerged conditions (symbol A); settings: Table 23; application herbicide amount 320 g/ha; grade 0-5 by criteria of Test Example 1
How it was run: (§2)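 Treatment timing was the one- to two-leaf stage, with diluted emulsifiable compound dropped onto the paddy water (depth 4 cm) over alluvial soil. All three species grew from a mixed sowing in a 25° C. to 30° C. greenhouse. Injury was judged by eye 3 weeks on.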

beet [3] = test: Test Example 4: effect on crop by soil treatment (symbol f); settings: application herbicide amount 320 g/ha
How it was run: as §1

Lolium multiflorum Lam. = test: Test Example 5: herbicidal effect by foliage application, plastic box (symbol K); settings: 320 g/ha, 3 weeks after application
How it was run: (§3)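 Visual herbicidal score, taken three weeks post-application, of seedlings sprayed on the foliage with water-diluted emulsion at a predetermined amount; plants were 14 days old, greenhouse-raised at 25° C. to 30° C.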

Abutilon theophrasti [4] = test: Test Example 4: herbicidal effect by soil treatment (symbol M); settings: application herbicide amount 320 g/ha
How it was run: (§4)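 Seeds were sown in sterilized diluvial soil, covered with about 1.5 cm of soil, and the soil surface was sprayed with a water-diluted emulsion of the compound at a predetermined rate. Plants grew in a greenhouse at 25° C. to 30° C.; effects were scored visually 3 weeks after application.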

Leptochloa chinensis = test: Test Example 3: herbicidal effect by foliage application, Wagner pot (symbol D); settings: application herbicide amount 320 g/ha
How it was run: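 The compound, formulated as an emulsion and diluted with water to a predetermined rate, is applied uniformly to leaves of two-week-old seedlings growing in submerged alluvial soil at 25–30 °C. Rice is included. Each plant is assessed 3 weeks later using defined criteria.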

Scirpus juncoides = test: Test Example 2: herbicidal activity, application during weed generation in submerged conditions (symbol B); settings: Table 23; application herbicide amount 320 g/ha; grade 0-5 by criteria of Test Example 1
How it was run: as §2

Setaria viridis = test: Test Example 5: herbicidal effect by foliage application, plastic box (symbol G); settings: 320 g/ha, 3 weeks after application
How it was run: as §3

Abutilon theophrasti [5] = test: Test Example 5: herbicidal effect by foliage application, plastic box (symbol M); settings: 320 g/ha, 3 weeks after application
How it was run: as §3

Avena fatua = test: Test Example 4: herbicidal effect by soil treatment (symbol I); settings: application herbicide amount 320 g/ha
How it was run: as §4

transplanted rice plant = test: Test Example 1: effect on crop, application before weed generation in submerged conditions (symbol a); settings: application herbicide amount 320 g/ha
How it was run: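 Alluvial soil pots flooded to 4 cm water, sown with Echinochloa oryzacola, Scirpus juncoides and Monochoria vaginalis, then transplanted with 2.5 leaf stage rice seedlings; pre-emergence application. Greenhouse 25° C. to 30° C.; scored 0–5 by herbicidal ratio 3 weeks after application.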

CON=C(C)CC1CC(OC(=O)COc2ccc(C)cc2)=C(c2c(C)cc(C)cc2C)C1=O (stereo not drawn) [1-072]
d (soybean) effect on crop grade (soybean): 0 (Herbicidal ratio of 5% or lower (almost no effect))
f: beet, effect on crop grade (beet [1]): 1 (Herbicidal ratio of 5% or higher and lower than 20%)
Herbicidal effect grade, A: Echinochloa oryzacola Vasing. [2]: 5 (Herbicidal ratio of 90% or more (almost completely withered))
f (beet) effect on crop grade (beet [3]): 0 (Herbicidal ratio of 5% or lower (almost no effect))
K: Lolium multiflorum Lam., herbicidal effect grade (Lolium multiflorum Lam.): 5 (Herbicidal ratio of 90% or more (almost completely withered))
M (Abutilon theophrasti) herbicidal effect grade (Abutilon theophrasti [4]): 4 (Herbicidal ratio of 70% or higher and lower than 90%)
herbicidal effect on D (Leptochloa chinensis), grade 0-5 (Leptochloa chinensis): 5 (Herbicidal ratio of 90% or more (almost completely withered))
Herbicidal effect grade, B: Scirpus juncoides (Scirpus juncoides): 3 (Herbicidal ratio of 40% or higher and lower than 70%)
G: Setaria viridis, herbicidal effect grade (Setaria viridis): 5 (Herbicidal ratio of 90% or more (almost completely withered))
M: Abutilon theophrasti, herbicidal effect grade (Abutilon theophrasti [5]): 5 (Herbicidal ratio of 90% or more (almost completely withered))
I (Avena fatua) herbicidal effect grade (Avena fatua): 4 (Herbicidal ratio of 70% or higher and lower than 90%)
Effect grade on crop, a: transplanted rice plant (transplanted rice plant): 5 (Herbicidal ratio of 90% or more (almost completely withered))

CON=C(CC1CC(O)=C(c2c(C)cc(C#C[Si](C)(C)C)cc2C)C1=O)C(C)C (stereo not drawn) [9-005]
Effect on crop grade, d: soybean (soybean): 0 (Herbicidal ratio of 5% or lower (almost no effect))
f: beet, effect on crop grade (beet [1]): 0 (Herbicidal ratio of 5% or lower (almost no effect))
Herbicidal effect grade, A: Echinochloa oryzacola Vasing. [2]: 3 (Herbicidal ratio of 40% or higher and lower than 70%)
Effect on crop grade, f: beet (beet [3]): 0 (Herbicidal ratio of 5% or lower (almost no effect))
K: Lolium multiflorum Lam., herbicidal effect grade (Lolium multiflorum Lam.): 5 (Herbicidal ratio of 90% or more (almost completely withered))
Herbicidal effect grade, M: Abutilon theophrasti (Abutilon theophrasti [4]): 0 (Herbicidal ratio of 5% or lower (almost no effect))
D (Leptochloa chinensis) herbicidal effect grade (Leptochloa chinensis; Table 24): 5 (Herbicidal ratio of 90% or more (almost completely withered))
Herbicidal effect grade, B: Scirpus juncoides (Scirpus juncoides): 0 (Herbicidal ratio of 5% or lower (almost no effect))
G: Setaria viridis, herbicidal effect grade (Setaria viridis): 4 (Herbicidal ratio of 70% or higher and lower than 90%)
M: Abutilon theophrasti, herbicidal effect grade (Abutilon theophrasti [5]): 0 (Herbicidal ratio of 5% or lower (almost no effect))
Herbicidal effect grade, I: Avena fatua (Avena fatua): 0 (Herbicidal ratio of 5% or lower (almost no effect))
Effect grade on crop, a: transplanted rice plant (transplanted rice plant): 4 (Herbicidal ratio of 70% or higher and lower than 90%)

CON=C(C)CC1CC(OC(=O)C(C)(C)OC(C)=O)=C(c2c(C)cc(C)cc2C)C1=O (stereo not drawn) [1-034]
d (soybean) effect on crop grade (soybean): 0 (Herbicidal ratio of 5% or lower (almost no effect))
f: beet, effect on crop grade (beet [1]): 4 (Herbicidal ratio of 70% or higher and lower than 90%)
Herbicidal effect grade, A: Echinochloa oryzacola Vasing. [2]: 5 (Herbicidal ratio of 90% or more (almost completely withered))
f (beet) effect on crop grade (beet [3]): 4 (Herbicidal ratio of 70% or higher and lower than 90%)
K: Lolium multiflorum Lam., herbicidal effect grade (Lolium multiflorum Lam.): 5 (Herbicidal ratio of 90% or more (almost completely withered))
M (Abutilon theophrasti) herbicidal effect grade (Abutilon theophrasti [4]): 5 (Herbicidal ratio of 90% or more (almost completely withered))
herbicidal effect on D (Leptochloa chinensis), grade 0-5 (Leptochloa chinensis): 5 (Herbicidal ratio of 90% or more (almost completely withered))
Herbicidal effect grade, B: Scirpus juncoides (Scirpus juncoides): 3 (Herbicidal ratio of 40% or higher and lower than 70%)
G: Setaria viridis, herbicidal effect grade (Setaria viridis): 5 (Herbicidal ratio of 90% or more (almost completely withered))
M: Abutilon theophrasti, herbicidal effect grade (Abutilon theophrasti [5]): 4 (Herbicidal ratio of 70% or higher and lower than 90%)
I (Avena fatua) herbicidal effect grade (Avena fatua): 5 (Herbicidal ratio of 90% or more (almost completely withered))
Effect grade on crop, a: transplanted rice plant (transplanted rice plant): 5 (Herbicidal ratio of 90% or more (almost completely withered))

CON=C(C)CC1CC(OC(=O)C(C)(C)F)=C(c2c(C)cc(C)cc2C)C1=O (stereo not drawn) [1-039]
d (soybean) effect on crop grade (soybean): 0 (Herbicidal ratio of 5% or lower (almost no effect))
f: beet, effect on crop grade (beet [1]): 3 (Herbicidal ratio of 40% or higher and lower than 70%)
Herbicidal effect grade, A: Echinochloa oryzacola Vasing. [2]: 5 (Herbicidal ratio of 90% or more (almost completely withered))
f (beet) effect on crop grade (beet [3]): 3 (Herbicidal ratio of 40% or higher and lower than 70%)
K: Lolium multiflorum Lam., herbicidal effect grade (Lolium multiflorum Lam.): 5 (Herbicidal ratio of 90% or more (almost completely withered))
M (Abutilon theophrasti) herbicidal effect grade (Abutilon theophrasti [4]): 5 (Herbicidal ratio of 90% or more (almost completely withered))
herbicidal effect on D (Leptochloa chinensis), grade 0-5 (Leptochloa chinensis): 5 (Herbicidal ratio of 90% or more (almost completely withered))
Herbicidal effect grade, B: Scirpus juncoides (Scirpus juncoides): 5 (Herbicidal ratio of 90% or more (almost completely withered))
G: Setaria viridis, herbicidal effect grade (Setaria viridis): 5 (Herbicidal ratio of 90% or more (almost completely withered))
M: Abutilon theophrasti, herbicidal effect grade (Abutilon theophrasti [5]): 4 (Herbicidal ratio of 70% or higher and lower than 90%)
I (Avena fatua) herbicidal effect grade (Avena fatua): 1 (Herbicidal ratio of 5% or higher and lower than 20%)
Effect grade on crop, a: transplanted rice plant (transplanted rice plant): 5 (Herbicidal ratio of 90% or more (almost completely withered))

CC(CC1CC(O)=C(c2c(C)cc(C)cc2C)C1=O)=NOCC(=O)N1CCOCC1 (stereo not drawn) [1-025]
d (soybean) effect on crop grade (soybean): 0 (Herbicidal ratio of 5% or lower (almost no effect))
f: beet, effect on crop grade (beet [1]): 0 (Herbicidal ratio of 5% or lower (almost no effect))
Herbicidal effect grade, A: Echinochloa oryzacola Vasing. [2]: 1 (Herbicidal ratio of 5% or higher and lower than 20%)
f (beet) effect on crop grade (beet [3]): 0 (Herbicidal ratio of 5% or lower (almost no effect))
K: Lolium multiflorum Lam., herbicidal effect grade (Lolium multiflorum Lam.): 5 (Herbicidal ratio of 90% or more (almost completely withered))
M (Abutilon theophrasti) herbicidal effect grade (Abutilon theophrasti [4]): 0 (Herbicidal ratio of 5% or lower (almost no effect))
herbicidal effect on D (Leptochloa chinensis), grade 0-5 (Leptochloa chinensis): 5 (Herbicidal ratio of 90% or more (almost completely withered))
Herbicidal effect grade, B: Scirpus juncoides (Scirpus juncoides): 0 (Herbicidal ratio of 5% or lower (almost no effect))
G: Setaria viridis, herbicidal effect grade (Setaria viridis): 4 (Herbicidal ratio of 70% or higher and lower than 90%)
M: Abutilon theophrasti, herbicidal effect grade (Abutilon theophrasti [5]): 1 (Herbicidal ratio of 5% or higher and lower than 20%)
I (Avena fatua) herbicidal effect grade (Avena fatua): 3 (Herbicidal ratio of 40% or higher and lower than 70%)
Effect grade on crop, a: transplanted rice plant (transplanted rice plant): 3 (Herbicidal ratio of 40% or higher and lower than 70%)

CON=C(C)CC1CC(OC(=O)C(C)Oc2ccccc2)=C(c2c(C)cc(C)cc2C)C1=O (stereo not drawn) [1-060]
d (soybean) effect on crop grade (soybean): 0 (Herbicidal ratio of 5% or lower (almost no effect))
f: beet, effect on crop grade (beet [1]): 0 (Herbicidal ratio of 5% or lower (almost no effect))
Herbicidal effect grade, A: Echinochloa oryzacola Vasing. [2]: 5 (Herbicidal ratio of 90% or more (almost completely withered))
f (beet) effect on crop grade (beet [3]): 0 (Herbicidal ratio of 5% or lower (almost no effect))
K: Lolium multiflorum Lam., herbicidal effect grade (Lolium multiflorum Lam.): 5 (Herbicidal ratio of 90% or more (almost completely withered))
M (Abutilon theophrasti) herbicidal effect grade (Abutilon theophrasti [4]): 4 (Herbicidal ratio of 70% or higher and lower than 90%)
herbicidal effect on D (Leptochloa chinensis), grade 0-5 (Leptochloa chinensis): 5 (Herbicidal ratio of 90% or more (almost completely withered))
Herbicidal effect grade, B: Scirpus juncoides (Scirpus juncoides): 4 (Herbicidal ratio of 70% or higher and lower than 90%)
G: Setaria viridis, herbicidal effect grade (Setaria viridis): 5 (Herbicidal ratio of 90% or more (almost completely withered))
M: Abutilon theophrasti, herbicidal effect grade (Abutilon theophrasti [5]): 3 (Herbicidal ratio of 40% or higher and lower than 70%)
I (Avena fatua) herbicidal effect grade (Avena fatua): 3 (Herbicidal ratio of 40% or higher and lower than 70%)
Effect grade on crop, a: transplanted rice plant (transplanted rice plant): 5 (Herbicidal ratio of 90% or more (almost completely withered))
